Data set [1] is described as follows: Cytotoxicity against mouse L1210FR cells assessed as cell growth inhibition after 72 hrs by MTT assay. The data set is classed as functional, cell-based.
The subject of data set [2] is L1210. The data set can be described thus: Cytotoxicity against mouse L1210 cells assessed as cell growth inhibition after 72 hrs by MTT assay. The data set is classed as functional, cell-based. Conditions: L1210, 72 h.
The test system of data set [3] is WI-38. The data set is described as follows: Cytotoxicity against human WI38 cells assessed as cell growth inhibition after 72 hrs by MTT assay. Format: cell-based. Conditions: WI-38, 72 h.
Data set [4] in a line: Selectivity ratio of IC50 for human WI38 cells to IC50 for mouse L1210FR cells. The data set is classed as toxicity. Conditions: WI38 cells and L1210FR cells, read-out: Ratio IC50.
Data set [5] is described as follows: Selectivity ratio of IC50 for mouse L1210 cells to IC50 for mouse L1210FR cells. Format: functional.
The nature of data set [6]: Half life in human plasma. Format: ADME, cell-free.
A short description of data set [7]: Inhibition of high-voltage activated calcium channel (unknown origin) expressed in NG108-15 cells at -90 mV holding potential by whole cell patch clamp assay. The data set is classed as cell-based. As to conditions: Homo sapiens.

Where a SMILES comes first, the peptide text is derived from it. Bridges are numbered along the chain shown (N, C = ends).

As for `CC(=O)O[C@@]12CO[C@@H]1C[C@H](O)[C@@]1(C)C(=O)[C@H](OC(=O)C3CC3)C3=C(C)[C@@H](OC(=O)[C@H](OC(=O)Cc4ccccc4SSCCC(=O)NNC(=O)CCCC[C@@H]4SC[C@@H]5NC(=O)N[C@@H]54)[C@H](C=C(C)C)NC(=O)OC(C)(C)C)C[C@@](O)([C@@H](OC(=O)c4ccccc4)[C@H]21)C3(C)C`, the results for the concentration for half-maximal inhibition (IC50) in data set [1], in data set [2] and in data set [3] were 8.8 nM, 522 nM and 570 nM, respectively. Further, in data set [4], the selectivity ratio is 65. Also, the “Ratio IC50” value in data set [5] is reported as 59.

In the case of `Nc1ccn([C@@H]2O[C@H](CO)[C@@H](O)C2(F)F)c(=O)n1` [GEMCITABINE], in data set [6], the half-life was in the range of 9 to 13 min.

For `CC(C)C[C@H](NC(=O)[C@H](CCCCN)NC(=O)[C@H](Cc1c[nH]c2ccccc12)NC(=O)[C@H](CCCCN)NC(=O)[C@@H]1CSSC[C@@H]2NC(=O)[C@H](CCC(=O)O)NC(=O)[C@H](CC(N)=O)NC(=O)[C@H](CCCCN)NC(=O)CNC(=O)[C@@H]3CCCN3C(=O)[C@H]([C@@H](C)O)NC(=O)[C@@H]3CSSC[C@H](NC(=O)[C@H](C(C)C)NC(=O)[C@H](CCCNC(=N)N)NC(=O)[C@H](CC(N)=O)NC(=O)[C@@H]4CCCN4C(=O)[C@H](CSSC[C@H](NC(=O)[C@H](C)N)C(=O)N[C@@H](CCCCN)C(=O)NCC(=O)N[C@@H](C(C)C)C(=O)N[C@@H](Cc4ccccc4)C(=O)N[C@@H](CC(=O)O)C(=O)N[C@@H](C)C(=O)N3)NC2=O)C(=O)N[C@@H](CO)C(=O)N[C@@H](CC(=O)O)C(=O)N[C@@H](CCCCN)C(=O)N[C@@H](Cc2cnc[nH]2)C(=O)N[C@@H](CCCCN)C(=O)N[C@@H](Cc2c[nH]c3ccccc23)C(=O)N1)C(=O)O` (H-ACKGVFDACTPGKNECCPNRVCSDKHKWCKWKL-OH; disulfide 2-17, 9-22, 16-29), the concentration giving a half-maximal response (EC50) in data set [7] turned out to be 100 nM.

These data come from ChEMBL document CHEMBL4251641, “Biotin conjugated organic molecules and proteins for cancer therapy: A review” (Eur J Med Chem, 2018).
